Experimental data from PubChem BioAssay AID248 (DTP/NCI, 2004).
Values joined by “and” are separate entries in the source; they are usually repeats but may differ in a detail not shown here. Identical values can stand only once. Inconclusive results and toxic doses are left out. Cut-off read from the data, not from the text of the source: active = T/C of 150% or more; inactive = T/C below 125%.

System: L1210 leukemia ip in BDF1 mice, survival T/C
Test: NCI In Vivo Anticancer Drug Screen. Data for tumor model L1210 Leukemia (intraperitoneal) in B6D2F1 (BDF1) mice
Settings: endpoint: mean survival time, higher = longer survival
In short: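 Antitumor effect is assessed in tumor-bearing animals. Survival in the compound arm is compared with a vehicle-dosed control arm and expressed as their quotient.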

[1] = dose: 100.0 mg/kg/injection, schedule: Q01DX009 (ip), vehicle: saline with Tween-80
[2] = dose: 200.0 mg/kg/injection, schedule: Q01DX009 (ip), vehicle: saline with Tween-80
[3] = dose: 400.0 mg/kg/injection, schedule: Q01DX009 (ip), vehicle: saline with Tween-80

Measured: T/C

CCC[CH2][Sn]1([CH2]CCC)[O]C(=O)C[S]1
inactive: dose: 0.78 mg/kg/injection, schedule: Q04DX003 (ip), vehicle: saline 105 % of control | dose: 1.5 mg/kg/injection, schedule: Q01DX Z (ip), vehicle: saline 97 % of control | dose: 1.56 mg/kg/injection, schedule: Q01DX001 (ip), vehicle: acetone 96 % of control | dose: 1.56 mg/kg/injection, schedule: Q04DX003 (ip), vehicle: saline 109 % of control | dose: 2.5 mg/kg/injection, schedule: Q01DX009 (ip), vehicle: acetone 105 % of control | dose: 3.0 mg/kg/injection, schedule: Q01DX Z (ip), vehicle: saline 106 % of control | dose: 3.12 mg/kg/injection, schedule: Q01DX001 (ip), vehicle: acetone 104 % of control | dose: 3.12 mg/kg/injection, schedule: Q04DX003 (ip), vehicle: saline 109 % of control | dose: 4.6 mg/kg/injection, schedule: Q04DX003 (ip), vehicle: saline 107 % of control | dose: 6.0 mg/kg/injection, schedule: Q01DX Z (ip), vehicle: saline 90 % of control | dose: 6.25 mg/kg/injection, schedule: Q01DX001 (ip), vehicle: acetone 105 % of control | dose: 6.25 mg/kg/injection, schedule: Q04DX002 (ip), vehicle: saline with Tween-80 101 % of control | dose: 7.0 mg/kg/injection, schedule: Q04DX003 (ip), vehicle: saline 97 % of control | dose: 10.0 mg/kg/injection, schedule: Q04DX003 (ip), vehicle: saline 108 % of control | dose: 12.5 mg/kg/injection, schedule: Q04DX002 (ip), vehicle: saline with Tween-80 96 % of control | dose: 100.0 mg/kg/injection, schedule: Q04DX002 (ip), vehicle: saline with Tween-80 106 % of control

c1cc[c]([Sn]([c]2ccccc2)([c]2ccccc2)[n]2cccc2)cc1
inactive: dose: 3.13 mg/kg/injection, schedule: Q01DX009 (ip), vehicle: saline with Tween-80 98 % of control | dose: 6.25 mg/kg/injection, schedule: Q01DX009 (ip), vehicle: saline with Tween-80 102 % of control | dose: 12.5 mg/kg/injection, schedule: Q01DX009 (ip), vehicle: saline with Tween-80 100 % of control | [1] 94 % of control

CC1CC(=O)NN1 (configuration not stated)
inactive: [1] 94 % of control | [2] 90 % of control | [3] 96 % of control

CC(=O)c1cccc(NC(=O)c2ccc(F)cc2)c1
inactive: [1] 100 % of control | [2] 98 % of control | [3] 88 % of control

CCOC(=O)C1=CC2(c3ccccc3)CC1(c1ccccc1)C(c1ccccc1)=C2c1ccccc1 (configuration not stated)
inactive: dose: 50.0 mg/kg/injection, schedule: Q01DX001 (ip), vehicle: carboxymethylcellulose (CMC) 97 % of control | dose: 100.0 mg/kg/injection, schedule: Q01DX001 (ip), vehicle: carboxymethylcellulose (CMC) 92 % of control | dose: 200.0 mg/kg/injection, schedule: Q01DX001 (ip), vehicle: carboxymethylcellulose (CMC) 94 % of control | dose: 400.0 mg/kg/injection, schedule: Q01DX001 (ip), vehicle: carboxymethylcellulose (CMC) 89 % of control

O=[N+]([O-])c1ccc(/C=N/c2nccs2)o1
inactive: dose: 1.56 mg/kg/injection, schedule: Q01DX009 (ip), vehicle: saline 88 % of control | dose: 3.12 mg/kg/injection, schedule: Q01DX009 (ip), vehicle: saline 90 % of control | dose: 6.25 mg/kg/injection, schedule: Q01DX009 (ip), vehicle: saline 93 % of control | dose: 12.5 mg/kg/injection, schedule: Q01DX009 (ip), vehicle: saline 103 % of control | dose: 25.0 mg/kg/injection, schedule: Q01DX009 (ip), vehicle: saline 93 % of control | dose: 25.0 mg/kg/injection, schedule: Q04DX003 (ip), vehicle: saline 97 % of control | dose: 50.0 mg/kg/injection, schedule: Q04DX003 (ip), vehicle: saline 116 % of control | dose: 100.0 mg/kg/injection, schedule: Q04DX003 (ip), vehicle: saline 88 % of control and 91 % of control

CN(CCO)C(=O)/C=C/c1ccccc1
inactive: dose: 50.0 mg/kg/injection, schedule: Q01DX009 (ip), vehicle: saline 100 % of control | dose: 100.0 mg/kg/injection, schedule: Q01DX009 (ip), vehicle: saline 94 % of control | dose: 200.0 mg/kg/injection, schedule: Q01DX009 (ip), vehicle: saline 92 % of control

CCCCOC(=O)C1CCCCC1C(=O)OCCCC (configuration not stated)
inactive: dose: 50.0 mg/kg/injection, schedule: Q01DX009 (ip), vehicle: Klucel (hydroxypropylcellulose) (HPC) 102 % of control | dose: 100.0 mg/kg/injection, schedule: Q01DX009 (ip), vehicle: Klucel (hydroxypropylcellulose) (HPC) 102 % of control | dose: 200.0 mg/kg/injection, schedule: Q01DX009 (ip), vehicle: Klucel (hydroxypropylcellulose) (HPC) 90 % of control

O=S1(=O)C=C(Cl)C2C3CC(C(Cl)C3Cl)C21 (configuration not stated)
inactive: dose: 5.0 mg/kg/injection, schedule: Q01DX009 (ip), vehicle: carboxymethylcellulose (CMC) 94 % of control | dose: 10.0 mg/kg/injection, schedule: Q01DX001 (ip), vehicle: carboxymethylcellulose (CMC) 94 % of control | dose: 10.0 mg/kg/injection, schedule: Q01DX009 (ip), vehicle: carboxymethylcellulose (CMC) 94 % of control | dose: 10.0 mg/kg/injection, schedule: Q04DX003 (ip), vehicle: carboxymethylcellulose (CMC) 92 % of control | dose: 20.0 mg/kg/injection, schedule: Q01DX001 (ip), vehicle: carboxymethylcellulose (CMC) 100 % of control | dose: 20.0 mg/kg/injection, schedule: Q01DX009 (ip), vehicle: carboxymethylcellulose (CMC) 91 % of control | dose: 20.0 mg/kg/injection, schedule: Q04DX003 (ip), vehicle: carboxymethylcellulose (CMC) 94 % of control | dose: 40.0 mg/kg/injection, schedule: Q01DX001 (ip), vehicle: carboxymethylcellulose (CMC) 103 % of control | dose: 40.0 mg/kg/injection, schedule: Q04DX003 (ip), vehicle: carboxymethylcellulose (CMC) 94 % of control

O=[N+]([O-])c1cc(Br)cc(Br)c1O
inactive: dose: 25.0 mg/kg/injection, schedule: Q04DX002 (ip), vehicle: Klucel (hydroxypropylcellulose) (HPC) 109 % of control | dose: 50.0 mg/kg/injection, schedule: Q04DX002 (ip), vehicle: Klucel (hydroxypropylcellulose) (HPC) 98 % of control | dose: 100.0 mg/kg/injection, schedule: Q04DX002 (ip), vehicle: Klucel (hydroxypropylcellulose) (HPC) 98 % of control and 91 % of control

Nc1n[nH]c2cc(=O)[nH]c(O)c12
inactive: dose: 75.0 mg/kg/injection, schedule: Q01DX001 (ip), vehicle: saline 98 % of control | dose: 150.0 mg/kg/injection, schedule: Q01DX001 (ip), vehicle: saline 93 % of control | dose: 300.0 mg/kg/injection, schedule: Q01DX001 (ip), vehicle: saline 94 % of control

O=C(Nc1ccc(C2=NCCN2)cc1)c1cccc(NC(=S)Nc2ccc(C3=NCCN3)cc2)c1
inactive: dose: 5.0 mg/kg/injection, schedule: Q01DX Z (ip), vehicle: saline 107 % of control and 122 % of control | dose: 20.0 mg/kg/injection, schedule: Q01DX Z (ip), vehicle: saline 102 % of control and 113 % of control | dose: 60.0 mg/kg/injection, schedule: Q01DX Z (oral), vehicle: saline 103 % of control | dose: 120.0 mg/kg/injection, schedule: Q01DX Z (oral), vehicle: saline 111 % of control

O=C1Nc2ccccc2C1=Nc1ccccc1-c1ccccc1
inactive: dose: 100.0 mg/kg/injection, schedule: Q01DX001 (ip), vehicle: saline 91 % of control | dose: 200.0 mg/kg/injection, schedule: Q01DX001 (ip), vehicle: saline 92 % of control | dose: 400.0 mg/kg/injection, schedule: Q01DX001 (ip), vehicle: saline 96 % of control

c1ccc(CSCCSCc2ccccc2)cc1
inactive: dose: 87.5 mg/kg/injection, schedule: Q01DX009 (ip), vehicle: other 95 % of control | dose: 175.0 mg/kg/injection, schedule: Q01DX009 (ip), vehicle: other 101 % of control | dose: 350.0 mg/kg/injection, schedule: Q01DX009 (ip), vehicle: other 104 % of control

CC(=O)Nc1ccccc1-c1ccc([N+](=O)[O-])cc1
inactive: dose: 100.0 mg/kg/injection, schedule: Q04DX003 (ip), vehicle: saline with Tween-80 110 % of control | dose: 200.0 mg/kg/injection, schedule: Q04DX003 (ip), vehicle: saline with Tween-80 101 % of control | dose: 400.0 mg/kg/injection, schedule: Q04DX003 (ip), vehicle: saline with Tween-80 101 % of control
